Patent publication US20260166021A1, “POLYMORPHIC FORMS OF A SOLUBLE EPOXIDE HYDROLASE INHIBITOR AND FORMULATIONS THEREOF” (EicOsis, LLC, priority 2022, published 2026)

Experiments:
[1] = Particle size analysis (Malvern particle sizer, dry method; optical microscopy); type: physicochemical
Experimental: Particle size was first analyzed with optical microscopy.
Particle size was also analyzed with a dry-method using a Malvern 300 particle sizer equipped with a standard energy venturi and utilizing 2.5 bar, 3.0 bar, and 3.5 bar air pressure. […] One possible explanation is that the insufficient energy was provided to break up particle agglomerations.
Based on these findings, particle size analysis was repeated at 2.5, 3.0, and 3.5 bar using a higher energy venturi to ensure the break-up of the potential agglomerates. The detailed particle sizing data using high-energy venturi are summarized in TABLE 26 and in FIGS. 114-119, with FIGS. 114-116 corresponding to 2.5, 3.0, and 3.5 bar analyses of unmilled Form D and FIGS. 117-119 corresponding to 2.5, 3.0, and 3.5 bar analyses of micronized Form D, respectively. While the data remained bimodal, indicating incomplete break-up of particle agglomerates, the D90 of micronized material measured below 6 μm, in closer agreement with the optical analyses.

[2] = Chemical stability in pH media (HPLC impurities); type: physicochemical
Experimental: For the pH stability analyses, approximately 2-3 mg Form D was incubated in 1.0 mL of aqueous pH 1.0 (0.1 M HCl), pH 6.8 (water adjusted using 0.1 M NaOH and 0.1 M HCl), and pH 10.0 solutions.

[3] = milled (micronized), 2.5 bar air pressure, high-energy venturi
[4] = milled (micronized), 2.5 bar air pressure, standard energy venturi
[5] = milled (micronized), 3.0 bar air pressure, high-energy venturi
[6] = milled (micronized), 3.0 bar air pressure, standard energy venturi
[7] = milled (micronized), 3.5 bar air pressure, high-energy venturi
[8] = milled (micronized), 3.5 bar air pressure, standard energy venturi
[9] = unmilled, 2.5 bar air pressure, high-energy venturi
[10] = unmilled, 2.5 bar air pressure, standard energy venturi
[11] = unmilled, 3.0 bar air pressure, high-energy venturi
[12] = unmilled, 3.0 bar air pressure, standard energy venturi
[13] = unmilled, 3.5 bar air pressure, high-energy venturi
[14] = unmilled, 3.5 bar air pressure, standard energy venturi

Structure (SMILES): CC[C@H](C)C(=O)N1CCC(NC(=O)Nc2ccc(OC(F)(F)F)c(F)c2)CC1 [Form D, (S)-1-(3-fluoro-4-(trifluoromethoxy)phenyl)-3-(1-(2-methylbutanoyl)piperidin-4-yl)urea]
- D10 [1, 3]: 0.46 μm
- D50 [1, 3]: 1.52 μm
- D90 [1, 3]: 5.80 μm
- PSD Modal [1, 3]: Bimodal
- D10 [1, 4]: 0.56 μm
- D50 [1, 4]: 1.85 μm
- D90 [1, 4]: 45.9 μm
- PSD Modal [1, 4]: Bimodal
- D10 [1, 5]: 0.46 μm
- D50 [1, 5]: 1.47 μm
- D90 [1, 5]: 5.42 μm
- PSD Modal [1, 5]: Bimodal
- D10 [1, 6]: 0.55 μm
- D50 [1, 6]: 1.80 μm
- D90 [1, 6]: 47.4 μm
- PSD Modal [1, 6]: Bimodal
- D10 [1, 7]: 0.44 μm
- D50 [1, 7]: 1.51 μm
- D90 [1, 7]: 5.44 μm
- PSD Modal [1, 7]: Bimodal
- D10 [1, 8]: 0.54 μm
- D50 [1, 8]: 1.69 μm
- D90 [1, 8]: 29.4 μm
- PSD Modal [1, 8]: Bimodal
- D10 [1, 9]: 5.24 μm
- D50 [1, 9]: 22.0 μm
- D90 [1, 9]: 55.8 μm
- PSD Modal [1, 9]: Bimodal
- D10 [1, 10]: 8.66 μm
- D50 [1, 10]: 34.5 μm
- D90 [1, 10]: 79.3 μm
- PSD Modal [1, 10]: Unimodal
- D10 [1, 11]: 4.47 μm
- D50 [1, 11]: 20.1 μm
- D90 [1, 11]: 54.8 μm
- PSD Modal [1, 11]: Bimodal
- D10 [1, 12]: 8.26 μm
- D50 [1, 12]: 35.0 μm
- D90 [1, 12]: 91.2 μm
- PSD Modal [1, 12]: Unimodal
- D10 [1, 13]: 2.84 μm
- D50 [1, 13]: 17.2 μm
- D90 [1, 13]: 51.1 μm
- PSD Modal [1, 13]: Bimodal
- D10 [1, 14]: 7.37 μm
- D50 [1, 14]: 33.1 μm
- D90 [1, 14]: 78.6 μm
- PSD Modal [1, 14]: Unimodal
- Impurity, % (Day 4) ([2]; 50° C., pH 1.0): None Detected
- Impurity, % (Day 7) ([2]; 50° C., pH 1.0): None Detected
- Impurity, % (Day 4) ([2]; 50° C., pH 6.8): None Detected
- Impurity, % (Day 7) ([2]; 50° C., pH 6.8): None Detected
- Impurity, % (Day 4) ([2]; 50° C., pH 10.0): None Detected
- Impurity, % (Day 7) ([2]; 50° C., pH 10.0): None Detected
- Impurity, % (Day 4) ([2]; Room Temperature, pH 1.0): None Detected
- Impurity, % (Day 7) ([2]; Room Temperature, pH 1.0): None Detected
- Impurity, % (Day 4) ([2]; Room Temperature, pH 6.8): None Detected
- Impurity, % (Day 7) ([2]; Room Temperature, pH 6.8): None Detected
- Impurity, % (Day 4) ([2]; Room Temperature, pH 10.0): None Detected
- Impurity, % (Day 7) ([2]; Room Temperature, pH 10.0): None Detected
- impurities after incubation in pH media ([2]; aqueous pH 1.0, pH 6.8, pH 10.0, 4 or 7 days, room temperature or 50° C.): No impurities were detectable
